{
  "source": "patent US20240352426A1",
  "about": "“Accelerated Protocol for the Differentiation of Podocytes from Human Pluripotent Stem Cells” (Vanderbilt University, priority 2021, published 2024)",
  "test_system": "iPSC-derived primitive streak cells",
  "assay": "Flow cytometry of differentiation markers after CHIR99021 treatment of primitive streak cells",
  "format": "cell-based, human",
  "method": "iPSCs seeded onto Geltrex-coated plates at a density of 100,000 cells/cm^2 were treated with mTesR media with 10 μM ROCKi for the first 24 h. On Day 0, cells were treated with base media (DMEM/F12 with GlutaMax, 1×B27) supplemented with primitive streak induction factors including 100 ng/ml Activin A and 3 μM CHIR99021. On Day 2, cells were treated with base media including 8 μM CHIR99021 to induce intermediate mesoderm until Day 5, followed by treatment with base medium containing 200 ng/ml FGF9 and 1 mg/ml Heparin (Sigma-Aldrich, St. Louis, Missouri). On Day 7, to induce the nephron progenitors, the cells were dissociated using Accutase and replated (1:4) onto laminin-511-coated plates. The podocyte phenotype was induced using base media supplemented with 100 ng/ml BMP7, 100 ng/ml Activin A, 50 ng/ml VEGF, 3 μM CHIR99021, and 0.1 μM RA and cells were assayed on Day 12. The detailed methods for deriving the podocytes was carefully described elsewhere (Bejoy J, et al. STAR protocols. 2021 2 (4): 100898).\nTo evaluate the expression of proteins of interest quantitatively, the cells were harvested by Accutase treatment and analyzed by flow cytometry. […] The cells were acquired with BD FACSCanto II flow cytometer (BD Biosciences, Beckton, New Jersey) and analyzed against isotype controls using FlowJo software. […]",
  "data": [
    {"smiles": "Cc1c[nH]c(-c2cnc(NCCNc3ccc(C#N)cn3)nc2-c2ccc(Cl)cc2Cl)n1", "note": "[CHIR99021]", "values": [
      {"measurement": "population of MIXL1+ cells (flow cytometry)", "setting": "8 μM CHIR99021 for 2-3 days on primitive streak cells", "value": 26.7, "unit": "%"},
      {"measurement": "cells expressing PAX8 (flow cytometry)", "setting": "day 5, after 8 μM CHIR99021, intermediate mesoderm stage", "value": 95.9, "unit": "%"}
    ]}
  ]
}
